Results: PubChem BioAssay (NCI)
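Assay format: 96-well plates, 48-hour exposure. Here, GI50 denotes the concentration required for 50% inhibition of growth. TGI marks complete inhibition of growth.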

Tests used:
Assay in all cases: NCI anticancer screen, dose series, 48 h
HL-60(TB) leukemia = system: HL-60(TB) leukemia
OVCAR-3 ovarian = system: OVCAR-3 ovarian
SNB-75 CNS = system: SNB-75 CNS
OVCAR-8 ovarian = system: OVCAR-8 ovarian
SK-MEL-5 melanoma = system: SK-MEL-5 melanoma
T-47D breast = system: T-47D breast
A549 NSCLC = system: A549 NSCLC
NCI-H460 lung = system: NCI-H460 lung
HS 578T breast = system: HS 578T breast
SK-MEL-2 melanoma = system: SK-MEL-2 melanoma

SMILES | GI50 (HL-60(TB) leukemia) [µM] | TGI (HL-60(TB) leukemia) [µM] | GI50 (OVCAR-3 ovarian) [µM] | TGI (OVCAR-3 ovarian) [µM] | GI50 (SNB-75 CNS) [µM] | TGI (SNB-75 CNS) [µM] | GI50 (OVCAR-8 ovarian) [µM] | TGI (OVCAR-8 ovarian) [µM] | GI50 (SK-MEL-5 melanoma) [µM] | TGI (SK-MEL-5 melanoma) [µM] | GI50 (T-47D breast) [µM] | TGI (T-47D breast) [µM] | GI50 (A549 NSCLC) [µM] | TGI (A549 NSCLC) [µM] | GI50 (NCI-H460 lung) [µM] | TGI (NCI-H460 lung) [µM] | GI50 (HS 578T breast) [µM] | TGI (HS 578T breast) [µM] | GI50 (SK-MEL-2 melanoma) [µM] | TGI (SK-MEL-2 melanoma) [µM]
N/C(=N\N=C\c1ccc(-c2ccccc2)cc1)N[N+](=O)[O-] | 1.9 | 7.58 | 1.67 | 9.5 | 1.06 | 6.62 | 5.61 | > 100 | 3.52 | > 100 | 4.8 | > 100 | 2.75 | > 100 | 2.98 | > 100 | 1.43 | > 61.3 | 4.82 | > 100
COc1ccc(-c2n[nH]nc2-c2cc(OC)c3c(c2OC)OCO3)cc1 | 0.293 | 0.975 | 0.378 | 2.71 | 0.573 | 3.96 | 2.02 | > 69 | 0.684 | 17.7 | 1.73 | > 100 | 0.7 | > 58.8 | 0.409 | 15.9 | 0.958 | 15 | 0.596 | 11.4
Nc1ncnc2[nH]ncc12 | 0.361 | 2.56 | 0.863 | 4.38 | 2.1 | > 100 | 0.285 | 16.6 | 4.18 | 24.5 | 0.265 | 4.52 | 1.72 | > 66.8 | 2.1 | > 100 | 7.32 | > 100 | 0.369 | 2.91
C=CCOC1OC(CO[Si](C)(C)C(C)(C)C)C(OCc2ccccc2)C(OCc2ccccc2)C1OCc1ccccc1 (stereo not given) | – | > 100 | – | > 100 | – | 51.1 | – | > 100 | – | > 100 | – | > 100 | – | > 100 | – | > 100 | – | > 100 | – | > 100
Cc1ccc(C2=NOC3=c4ccccc4=CSC3=C2c2ccc([N+](=O)[O-])cc2)cc1 | > 100 | > 100 | 10 | 41.9 | 24.5 | 81.4 | 6.22 | 40.5 | 11.4 | 37.6 | 5.22 | 47.1 | 24.5 | > 100 | 16.9 | > 100 | 22.9 | 94.9 | 31.5 | > 100
COc1cc2c(c(OC)c1OC)-c1ncc3cc(OC)c(OC)c(OC)c3c1C2 | 1.92 | 46 | 19.1 | 46.3 | 54.5 | > 100 | 6.09 | 34.7 | 15.5 | 29.5 | 50.4 | > 100 | 20.3 | > 100 | 30 | 78.2 | 29.7 | 65.6 | 22.9 | 56.8
O=[N+]([O-])c1cccc(-c2nc3sccn3c2-c2ccnc(NCCCNS(=O)(=O)c3cccc(F)c3)n2)c1 | 2.97 | 8.57 | 2.53 | 11.9 | 1.52 | 4.24 | 1.89 | 17.7 | 0.824 | 2.1 | 0.391 | 4.64 | 2.68 | 24.3 | 3.34 | > 100 | 4.73 | 47.3 | 2.04 | 5.98
COc1cccc(C=Nc2cc(C)ccn2)c1O.COc1cccc(C=Nc2cc(C)ccn2)c1O.[Cu] | 1.75 | 14.2 | 14 | 40.9 | 18.8 | 44.9 | 20.4 | 64.4 | 7.39 | 20.9 | 12 | 33.1 | 27.8 | 90.1 | 18.3 | 44 | 19 | 67.6 | 21.1 | 53.2
N=C(N)c1ccc(N2CCCN(c3ccc(C(=N)N)cc3)CC2)cc1 | > 100 | > 100 | 72.4 | > 100 | > 100 | > 100 | 49.6 | > 100 | 27.9 | > 100 | 22.6 | 81 | 40.5 | > 100 | 50.6 | > 100 | 32.4 | 96.9 | > 100 | > 100
C=CC(=O)N1CCN(c2ccc3cccc(NC(=O)c4cnc(C)cn4)c3n2)CC1 | 2.2 | 6.61 | 2.91 | > 100 | 0.565 | 9.66 | 3.46 | > 100 | 4.42 | 16.9 | 3.48 | > 100 | 3.77 | > 100 | 2.51 | 19.7 | 2.28 | 26.3 | 3.37 | 27.8
O[C@H]1CO[C@H]2[C@@H]1OC[C@@H]2Oc1ccc(Nc2ccnc(Nc3ccc(O[C@H]4CO[C@H]5[C@@H]4OC[C@@H]5O)c(Cl)c3)n2)cc1Cl | 1.57 | 4.7 | 1.56 | 7.17 | 1.27 | 4.77 | 1.38 | 11.3 | 1.17 | 2.43 | 0.456 | 2.89 | 2.84 | 11.5 | 1.4 | 3.05 | 1.29 | 4.8 | 1.71 | 5.02
Cc1cc2c3ccc(C)[n+](C)c3ccc2n1C | 1.92 | 18.7 | 3.45 | 23.2 | 3.15 | 14.7 | 1.53 | 29.8 | 3.65 | 14.8 | 4.76 | 49 | 0.46 | 9.3 | 3.9 | 28.8 | 3.17 | 24.3 | 7.56 | 25
